Series [1] in a line: Qualitative gelation assay in PBS. The class given is physicochemical. The settings on record: 10 mg/mL DMSO stock added to 1×PBS pH 7.4. The protocol: Gel formation of the teixobactin analogues was compared to that of the O-acyl isopeptide prodrugs in a qualitative gelation assay. In this experiment, a 10 mg/mL stock solution of the peptide trifluoroacetate salt in DMSO is added to 1×PBS buffer at pH 7.4 and gel formation is observed over time. Crystal violet is added to the PBS buffer to facilitate the visualization of the gels by providing contrast. […] In contrast, when the Lys10-teixobactin prodrugs are added, no immediate gel formation occurs.
Gelation assays of the O-acyl isopeptide prodrug analogues of teixobactin were performed using procedures previously reported. See K. Chen, et al., Chem. Commun. 2017, 53, 11357-11359, the disclosure of which is herein incorporated by reference.

For series [2], the system named is human red blood cells. Description: Hemolytic assay. It counts as cell-based. The protocol:
The hemolytic activity of the O-acyl isopeptide prodrugs and the corresponding teixobactin analogues were evaluated with human red blood cells (FIGS. 9A to 9H). Triton X-100 and melittin were used as positive controls and vancomycin and water (vehicle) were used as negative controls in the hemolysis assays. […] In contrast, 0.002% polysorbate 80 had no effect on the hemolytic activity of Lys10-teixobactin and Leu10-teixobactin and little effect on the corresponding O-acyl isopeptide prodrug analogues. When the hemolysis assays were performed with teixobactin, no hemolysis was observed up to 100 μg/mL without polysorbate 80 and modest hemolysis (4%) at 100 μg/mL with 0.002% polysorbate 80.
Preparation of Phosphate-Buffered Saline (PBS) Buffers. A 10×PBS buffer was prepared by dissolving 8.9 g of Na2HPO4, 1.2 g KH2PO4, 40 g NaCl, and 1 g KCl in 500 mL of 18 MO deionized water. The solution was stirred until the buffer salts were completely dissolved. The pH of the 10×PBS buffer was adjusted to 7.4 using either 1 M HCl or 1 M NaOH and was subsequently sterile filtered. To create a 1×PBS buffer, the 10×PBS buffer was diluted 10-fold using 18 MO deionized water. Another 1×PBS buffer was made, supplemented with 0.002% polysorbate 80.
Preparation of human red blood cells. Whole human blood was stored in a 4° C. in K2 EDTA to prevent coagulation. On the day of cell treatment, the blood was centrifuged at 800×g for 5 min at 4° C. to isolate red blood cells (RBCs). The plasma layer was then removed and discarded. Approximately 3 mL of 150 mM NaCl solution was added to the RBCs and mixed gently by inversion. The RBCs were centrifuged at 800×g for 8 min at 4° C. and the supernatant was discarded. An additional wash with 150 mM NaCl was performed, centrifuged at 800×g for 8 min at 4° C. and the supernatant was discarded. 2 mL of whole RBCs were transferred to a 15-mL conical tube. Approximately 4 mL of 1×PBS was added to the RBCs and inverted gently to mix. The RBCs were centrifuged at 800×g for 8 min at 4° C. […]
Hemolytic assay readout. […]

Series [3] relates to four Gram-positive bacteria (methicillin-susceptible and methicillin-resistant S. aureus, B. subtilis, S. epidermidis). It counts as cell-based. The protocol:
The antibiotic activity of the teixobactin O-acyl isopeptide prodrugs was evaluated using minimum inhibitory concentration (MIC) assays with four Gram-positive bacteria and compared the MIC values to those of the parent teixobactin analogues. Methicillin-susceptible and methicillin-resistant S. aureus were used as representative pathogens and B. subtilis and S. epidermidis as additional Gram-positive bacteria, and E. coli was used as a Gram-negative control. The activities of the teixobactin analogues and prodrugs were compared to those of teixobactin and vancomycin.
Bacillus subtilis (ATCC 6051), Staphylococcus epidermidis (ATCC 14990), Staphylococcus aureus (ATCC 29213), and Escherichia coli(ATCC 10798) were cultured from glycerol stocks in Mueller-Hinton broth overnight in a shaking incubator at 37° C. Staphylococcus aureus (ATCC 700698) was cultured from a glycerol stock in brain heart infusion broth overnight in a shaking incubator at 37° C. An aliquot of a 1 mg/mL antibiotic stock solution in DMSO was diluted with appropriate culture media to make a 64 μg/mL solution. […] The overnight cultures of each bacterium were diluted with Mueller-Hinton broth to an OD600 of 0.075 as measured for 200 μL in a 96-well plate. […] The OD600 were measured using a 96-well UV/vis plate reader (MultiSkan GO, Thermo Scientific). […]

Molecules are shown by their SMILES.

In the case of `CC[C@H](C)[C@H](NC(=O)[C@@H](Cc1ccccc1)NC)C(=O)N[C@@H](CO)C(=O)N[C@H](CCC(N)=O)C(=O)N[C@@H](C(=O)N[C@H](C(=O)N[C@@H](CO)C(=O)N[C@H]1C(=O)N[C@@H](C)C(=O)N[C@@H](CCCNC(=N)N)C(=O)N[C@@H]([C@@H](C)CC)C(=O)O[C@H]1C)[C@@H](C)CC)[C@@H](C)CC` [Arg10-teixobactin], the “gel formation immediately upon addition to PBS” value in series [1] is reported as “form gels immediately”. In the case of `CC[C@H](C)[C@H](NC(=O)[C@@H](Cc1ccccc1)NC)C(=O)N[C@@H](CO)C(=O)N[C@H](CCC(N)=O)C(=O)N[C@@H](C(=O)N[C@H](C(=O)N[C@@H](CO)C(=O)N[C@H]1C(=O)N[C@@H](C)C(=O)N[C@@H](CC(C)C)C(=O)N[C@@H]([C@@H](C)CC)C(=O)O[C@H]1C)[C@@H](C)CC)[C@@H](C)CC` [Leu10-teixobactin], the “gel formation immediately upon addition to PBS” value in series [1] is recorded as “form gels immediately”. Further, the “effect of 0.002% polysorbate 80 on hemolytic activity” value in series [2] was “no effect”.

For `CC[C@H](C)[C@H](NC(=O)[C@@H](Cc1ccccc1)NC)C(=O)N[C@@H](CO)C(=O)N[C@H](CCC(N)=O)C(=O)N[C@@H](C(=O)N[C@H](C(=O)N[C@@H](CO)C(=O)N[C@H]1C(=O)N[C@@H](C)C(=O)N[C@@H](CCCCN)C(=O)N[C@@H]([C@@H](C)CC)C(=O)O[C@H]1C)[C@@H](C)CC)[C@@H](C)CC` [Lys10-teixobactin], in series [3], the minimal inhibitory concentration (MIC) lay within 2 to 4 µg/mL. Besides, the “gel formation immediately upon addition to PBS” value in series [1] is reported as “large gelatinous aggregates form immediately”. Also, in series [2], the “effect of 0.002% polysorbate 80 on hemolytic activity” value is listed as “no effect”. In the case of `CN[C@H](CC(C)C)C(=O)N[C@H]1C(=O)N[C@@H](CC(N)=O)C(=O)N[C@H]2C(=O)N[C@H]3C(=O)N[C@H](C(=O)N[C@H](C(=O)O)c4cc(O)cc(O)c4-c4cc3ccc4O)[C@H](O)c3ccc(c(Cl)c3)Oc3cc2cc(c3O[C@@H]2O[C@H](CO)[C@@H](O)[C@H](O)[C@H]2O[C@H]2C[C@](C)(N)[C@H](O)[C@H](C)O2)Oc2ccc(cc2Cl)[C@H]1O` [vancomycin], the hemolysis entry in series [2] (concentrations up to 100 μg/mL, with and without 0.002% polysorbate 80) is on record as “No hemolysis”.

Broadly, the MIC is the lowest concentration that inhibits growth of the organism.

Values taken from patent US20250011366A1, “Prodrugs of Antibiotic Teixobactin” (priority 2021, published 2025).
